Reference: patent US12295936B2, “Immunomodulating urea azalides” (Zoetis Services LLC, priority 2020, dated 2025)

Legend:
Experiment in all cases: LPS-stimulated whole bovine blood assay, MSD cytokine detection
Type in all cases: cell-based
IL-6 = conditions: Bos taurus, LPS-stimulated bovine whole blood; read-out: IL-6 (IC50 μM)
Excerpt: In order to correlate RNA sequencing data to cytokine changes the whole blood assay was utilized. […] The enhancement result represents an overall stimulation of cytokine levels due to cellular stress or potential toxicity with increasing concentrations of the compound, representing a typical bell shape response curve for immunomodulatory activity.

IL-1β = conditions: overstimulation of IL-1β, LPS-stimulated bovine whole blood
TNF-α = conditions: Bos taurus, LPS-stimulated bovine whole blood; read-out: TNF-α (IC50 μM)

| IC50 (IL-6) [µM] | IC50 (TNF-α) [µM] | Structure (SMILES) | IL-1β OS of LPS (IL-1β) [µM] |
| --- | --- | --- | --- |
| 26 | 12 | CC[C@H]1OC(=O)[C@H](C)[C@@H](O[C@H]2C[C@@](C)(OC)[C@H](O)[C@H](C)O2)[C@H](C)[C@@H](O[C@@H]2O[C@H](C)C[C@H](N(C)C(=O)N(C)c3ccccc3)[C@H]2O)[C@](C)(O)C[C@@H](C)CN[C@H](C)[C@@H](O)[C@]1(C)O [Example B-3a, 1-((2S,3R,4S,6R)-2-(((2R,3S,4R,5R,8R,10R,11R,12S,13S,14R)-2-ethyl-3,4,10-trihydroxy-13-(((2R,4R,5R,6S)-5-hydroxy-4-methoxy-4,6-dimethyltetrahydro-2H-pyran-2-yl)oxy)-3,5,8,10,12,14-hexamethyl-15-oxo-1-oxa-6-azacyclopentadecan-11-yl)oxy)-3-hydroxy-6-methyltetrahydro-2H-pyran-4-yl)-1,3-dimethyl-3-phenylurea] | 16 |
| 143 | 156 | CC[C@H]1OC(=O)[C@H](C)[C@@H](O[C@H]2C[C@@](C)(OC)[C@@H](O)[C@H](C)O2)[C@H](C)[C@@H](O[C@@H]2O[C@H](C)C[C@H](N(C)C(=O)Nc3ccc(N(C)C)cc3)[C@H]2O)[C@](C)(O)C[C@@H](C)CN(C)[C@H](C)[C@@H](O)[C@]1(C)O [Example B-7, 3-(4-(dimethylamino)phenyl)-1-((2S,3R,4S,6R)-2-(((2R,3S,4R,5R,8R,10R,11R,12S,13S,14R)-2-ethyl-3,4,10-trihydroxy-13-(((2R,4R,5S,6S)-5-hydroxy-4-methoxy-4,6-dimethyltetrahydro-2H-pyran-2-yl)oxy)-3,5,6,8,10,12,14-heptamethyl-15-oxo-1-oxa-6-azacyclopentadecan-11-yl)oxy)-3-hydroxy-6-methyltetrahydro-2H-pyran-4-yl)-1-methylurea] | 100 |
| 30 | 20 | CCCSC[C@]1(O)[C@H](C)O[C@@H](O[C@H]2[C@H](C)[C@@H](O[C@@H]3O[C@H](C)C[C@H](N(C)C(=O)N(C)c4ccccc4)[C@H]3O)[C@](C)(O)C[C@@H](C)CN[C@H](C)[C@@H](O)[C@](C)(O)[C@@H](CC)OC(=O)[C@@H]2C)C[C@@]1(C)OC [Example D-2, 1-((2S,3R,4S,6R)-2-(((2R,3S,4R,5R,8R,10R,11R,12S,13S,14R)-2-ethyl-3,4,10-trihydroxy-13-(((2R,4R,5S,6S)-5-hydroxy-4-methoxy-4,6-dimethyl-5-((propylthio)methyl)tetrahydro-2H-pyran-2-yl)oxy)-3,5,8,10,12,14-hexamethyl-15-oxo-1-oxa-6-azacyclopentadecan-11-yl)oxy)-3-hydroxy-6-methyltetrahydro-2H-pyran-4-yl)-1,3-dimethyl-3-phenylurea] | 16 |
| 165 | 24 | CC[C@H]1OC(=O)[C@H](C)[C@@H](O[C@H]2C[C@@](C)(OC)[C@](O)(CNCCOC)[C@H](C)O2)[C@H](C)[C@@H](O[C@@H]2O[C@H](C)C[C@H](N(C)C(=O)N(C)c3ccccc3)[C@H]2O)[C@](C)(O)C[C@@H](C)CN[C@H](C)[C@@H](O)[C@]1(C)O [Example H-18, 1-((2S,3R,4S,6R)-2-(((2R,3S,4R,5R,8R,10R,11R,12S,13S,14R)-2-ethyl-3,4,10-trihydroxy-13-(((2R,4R,5S,6S)-5-hydroxy-4-methoxy-5-(((2-methoxyethyl)amino)methyl)-4,6-dimethyltetrahydro-2H-pyran-2-yl)oxy)-3,5,8,10,12,14-hexamethyl-15-oxo-1-oxa-6-azacyclopentadecan-11-yl)oxy)-3-hydroxy-6-methyltetrahydro-2H-pyran-4-yl)-1,3-dimethyl-3-phenylurea] | 40 |
| 181 | 70 | CC[C@H]1OC(=O)[C@H](C)[C@@H](O[C@H]2C[C@@](C)(OC)[C@](O)(CNCCCOC)[C@H](C)O2)[C@H](C)[C@@H](O[C@@H]2O[C@H](C)C[C@H](N(C)C(=O)N(C)c3ccccc3)[C@H]2O)[C@](C)(O)C[C@@H](C)CN[C@H](C)[C@@H](O)[C@]1(C)O [Example H-19, 1-((2S,3R,4S,6R)-2-(((2R,3S,4R,5R,8R,10R,11R,12S,13S,14R)-2-ethyl-3,4,10-trihydroxy-13-(((2R,4R,5S,6S)-5-hydroxy-4-methoxy-5-(((3-methoxypropyl)amino)methyl)-4,6-dimethyltetrahydro-2H-pyran-2-yl)oxy)-3,5,8,10,12,14-hexamethyl-15-oxo-1-oxa-6-azacyclopentadecan-11-yl)oxy)-3-hydroxy-6-methyltetrahydro-2H-pyran-4-yl)-1,3-dimethyl-3-phenylurea] | 100 |
| > 500 | 31 | CC[C@H]1OC(=O)[C@H](C)[C@@H](O[C@H]2C[C@@](C)(OC)[C@](O)(CNCCN(C)C)[C@H](C)O2)[C@H](C)[C@@H](O[C@@H]2O[C@H](C)C[C@H](N(C)C(=O)N(C)c3ccccc3)[C@H]2O)[C@](C)(O)C[C@@H](C)CN[C@H](C)[C@@H](O)[C@]1(C)O [Example H-20, 1-((2S,3R,4S,6R)-2-(((2R,3S,4R,5R,8R,10R,11R,12S,13S,14R)-13-(((2R,4R,5S,6S)-5-(((2-(dimethylamino)ethyl)amino)methyl)-5-hydroxy-4-methoxy-4,6-dimethyltetrahydro-2H-pyran-2-yl)oxy)-2-ethyl-3,4,10-trihydroxy-3,5,8,10,12,14-hexamethyl-15-oxo-1-oxa-6-azacyclopentadecan-11-yl)oxy)-3-hydroxy-6-methyltetrahydro-2H-pyran-4-yl)-1,3-dimethyl-3-phenylurea] | 6 |
| > 500 | > 500 | CCCN(C[C@]1(O)[C@H](C)O[C@@H](O[C@H]2[C@H](C)[C@@H](O[C@@H]3O[C@H](C)C[C@H](N(C)C(N)=O)[C@H]3O)[C@](C)(O)C[C@@H](C)CN[C@H](C)[C@@H](O)[C@](C)(O)[C@@H](CC)OC(=O)[C@@H]2C)C[C@@]1(C)OC)C(N)=O [Example H-22, 1-((2S,3R,4S,6R)-2-(((2R,3S,4R,5R,8R,10R,11R,12S,13S,14R)-2-ethyl-3,4,10-trihydroxy-13-(((2R,4R,5S,6S)-5-hydroxy-4-methoxy-4,6-dimethyl-5-((1-propylureido)methyl)tetrahydro-2H-pyran-2-yl)oxy)-3,5,8,10,12,14-hexamethyl-15-oxo-1-oxa-6-azacyclopentadecan-11-yl)oxy)-3-hydroxy-6-methyltetrahydro-2H-pyran-4-yl)-1-methylurea] | >500 |
| > 250 | 30 | CC[C@H]1OC(=O)[C@H](C)[C@@H](O[C@H]2C[C@@](C)(OC)[C@](O)(CNC)[C@H](C)O2)[C@H](C)[C@@H](O[C@@H]2O[C@H](C)C[C@H](N(C)C(=O)N(C)c3ccccc3)[C@H]2O)[C@](C)(O)C[C@@H](C)CN[C@H](C)[C@@H](O)[C@]1(C)O [Example H-26, 1-((2S,3R,4S,6R)-2-(((2R,3S,4R,5R,8R,10R,11R,12S,13S,14R)-2-ethyl-3,4,10-trihydroxy-13-(((2R,4R,5S,6S)-5-hydroxy-4-methoxy-4,6-dimethyl-5-((methylamino)methyl)tetrahydro-2H-pyran-2-yl)oxy)-3,5,8,10,12,14-hexamethyl-15-oxo-1-oxa-6-azacyclopentadecan-11-yl)oxy)-3-hydroxy-6-methyltetrahydro-2H-pyran-4-yl)-1,3-dimethyl-3-phenylurea] | 250 |
